This note sets out measurements from ChEMBL document CHEMBL1201862, “PubChem BioAssay data set” (2004).

The nature of experiment [1]: Fluorescence-based cell-based high throughput dose response assay for inhibitors of the interaction of nucleotide-binding oligomerization domain containing 2 (NOD2) and the receptor-interacting serine-threonine kinase 2 (RIPK2). Format: functional. The following applies: Homo sapiens.
The target in experiment [2] is T1, Sphingosine 1-phosphate receptor 4 (Homo sapiens, UniProt O95977).
T1 sequence (O95977 whole entry): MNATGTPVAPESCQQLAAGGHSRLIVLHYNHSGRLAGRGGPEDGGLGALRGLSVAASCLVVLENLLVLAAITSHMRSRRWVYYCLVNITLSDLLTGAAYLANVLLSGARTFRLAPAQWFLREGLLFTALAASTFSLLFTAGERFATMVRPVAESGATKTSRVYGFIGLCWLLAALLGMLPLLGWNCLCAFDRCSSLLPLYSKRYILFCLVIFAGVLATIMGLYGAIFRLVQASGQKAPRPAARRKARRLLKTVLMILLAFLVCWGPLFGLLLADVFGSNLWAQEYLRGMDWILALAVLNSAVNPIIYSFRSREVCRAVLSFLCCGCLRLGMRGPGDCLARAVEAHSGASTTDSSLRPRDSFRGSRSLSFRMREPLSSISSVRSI
Nature of the experiment: Fluorescence dose response cell-based high throughput screening assay for antagonists of the Sphingosine 1-Phosphate Receptor 4 (S1P4). [Related pubchem assays: 1524 (Confirmation in triplicates.), 1510 (Primary screen.)]. The format is functional.

For experiment [3], the target named is T2, High affinity choline transporter 1 (Homo sapiens, UniProt Q9GZV3).
T2 sequence (Q9GZV3 whole entry): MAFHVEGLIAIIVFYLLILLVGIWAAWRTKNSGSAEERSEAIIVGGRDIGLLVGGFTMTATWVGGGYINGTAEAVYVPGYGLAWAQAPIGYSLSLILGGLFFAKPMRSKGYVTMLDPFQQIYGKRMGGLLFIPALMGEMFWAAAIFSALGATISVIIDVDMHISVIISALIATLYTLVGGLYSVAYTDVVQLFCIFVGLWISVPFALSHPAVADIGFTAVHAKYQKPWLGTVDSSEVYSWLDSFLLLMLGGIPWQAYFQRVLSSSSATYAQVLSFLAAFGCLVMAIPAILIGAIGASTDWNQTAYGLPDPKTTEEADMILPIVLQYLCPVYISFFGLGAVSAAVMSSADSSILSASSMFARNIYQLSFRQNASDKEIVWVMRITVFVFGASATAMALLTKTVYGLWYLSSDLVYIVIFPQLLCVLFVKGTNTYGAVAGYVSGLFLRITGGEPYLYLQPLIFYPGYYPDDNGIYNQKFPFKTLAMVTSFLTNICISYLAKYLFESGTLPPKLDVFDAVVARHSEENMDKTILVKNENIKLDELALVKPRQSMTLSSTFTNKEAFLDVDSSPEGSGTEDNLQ
Nature of the experiment: human choline transporter blockers, potency – cell-based, 5-point CRC, membrane potential dye, dose response (AID 504840). Format: functional.

Experiment [4] is described as follows: NIH3T3 cell viability loss – ATP luminescence, mouse fibroblasts, counter-screen, dose response (AID 2010).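 Further: cells exposed to compound for about 90 hours before reading.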 The format is functional, cell-based.
In experiment [5] the target is T3, Calpain-2 catalytic subunit (Sus scrofa, UniProt P43367).
T3 sequence (P43367 whole entry): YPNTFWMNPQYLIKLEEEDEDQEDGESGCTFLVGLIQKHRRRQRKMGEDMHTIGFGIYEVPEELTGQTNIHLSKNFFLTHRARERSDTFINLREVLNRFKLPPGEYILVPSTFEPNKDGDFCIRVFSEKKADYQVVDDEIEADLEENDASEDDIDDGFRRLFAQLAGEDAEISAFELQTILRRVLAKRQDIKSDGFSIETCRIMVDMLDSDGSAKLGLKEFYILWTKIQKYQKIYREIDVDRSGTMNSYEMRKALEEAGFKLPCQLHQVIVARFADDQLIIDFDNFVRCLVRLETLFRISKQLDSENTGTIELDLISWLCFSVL
Put plainly: m-calpain protease blockers, concentration series – biochemical, fluorogenic peptide substrate, dose response (AID 1420). The format is functional.

For experiment [6], the system named is Streptococcus sp. 'group A'. Put plainly: Streptococcus pyogenes SK(-)GAS viability under kanamycin – luminescence, BacTiterGlo, confirmation, counter-screen for streptokinase expression inhibitor project, dose response (AID 1900). Format: functional, organism-based.
For experiment [7], the target named is T4, RNA-binding protein pos-1 (Caenorhabditis elegans, UniProt G5EF15).
T4 sequence (G5EF15 whole entry): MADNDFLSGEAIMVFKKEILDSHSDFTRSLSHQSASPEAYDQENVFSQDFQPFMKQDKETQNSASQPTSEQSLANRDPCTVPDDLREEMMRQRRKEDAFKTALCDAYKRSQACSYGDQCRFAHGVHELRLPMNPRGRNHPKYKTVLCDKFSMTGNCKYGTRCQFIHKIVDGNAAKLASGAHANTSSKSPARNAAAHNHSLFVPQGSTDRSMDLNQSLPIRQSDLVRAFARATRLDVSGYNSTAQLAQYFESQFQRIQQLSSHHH
Put plainly: disruptors of C. elegans POS-1 RNA interaction – biochemical, fluorescence polarization, dose response (AID 1964).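 Further: purified POS-1 fused to maltose binding protein made in E. coli; potency of compounds blocking POS-1 binding to fluorescent RNA.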

Experiment [8] in a line: non-specific 3'UTR reporter inhibition in Clone20-Shn3RL – cell-based, Renilla luciferase, cherry-picked, counter-screen for Shn3 inhibitor project, dose response (AID 624133). Format: functional.
The next experiment concerns the target Paired box protein Pax-8 (Homo sapiens, UniProt Q06710). Nature of the experiment: PAX8 transcriptional activity inhibition in RMG-I – RMG-I cells, luciferase, cherry-pick, dose response (AID 687027).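 Further: luciferase reporter driven by Pax8 target thyroperoxidase promoter measured by SteadyGlo luminescence.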 The format is functional, cell-based.
For a further experiment, the target named is Activin receptor type-1 (Homo sapiens, UniProt Q04771). Put plainly: Navigating the Kinome. Panel member name: ACVR1. The format is functional.
Experiment [9] deals with Serine/threonine-protein kinase TAO1 (Homo sapiens, UniProt Q7L7X3). The format is functional.
Sequence of Serine/threonine-protein kinase TAO1 (Q7L7X3 whole entry): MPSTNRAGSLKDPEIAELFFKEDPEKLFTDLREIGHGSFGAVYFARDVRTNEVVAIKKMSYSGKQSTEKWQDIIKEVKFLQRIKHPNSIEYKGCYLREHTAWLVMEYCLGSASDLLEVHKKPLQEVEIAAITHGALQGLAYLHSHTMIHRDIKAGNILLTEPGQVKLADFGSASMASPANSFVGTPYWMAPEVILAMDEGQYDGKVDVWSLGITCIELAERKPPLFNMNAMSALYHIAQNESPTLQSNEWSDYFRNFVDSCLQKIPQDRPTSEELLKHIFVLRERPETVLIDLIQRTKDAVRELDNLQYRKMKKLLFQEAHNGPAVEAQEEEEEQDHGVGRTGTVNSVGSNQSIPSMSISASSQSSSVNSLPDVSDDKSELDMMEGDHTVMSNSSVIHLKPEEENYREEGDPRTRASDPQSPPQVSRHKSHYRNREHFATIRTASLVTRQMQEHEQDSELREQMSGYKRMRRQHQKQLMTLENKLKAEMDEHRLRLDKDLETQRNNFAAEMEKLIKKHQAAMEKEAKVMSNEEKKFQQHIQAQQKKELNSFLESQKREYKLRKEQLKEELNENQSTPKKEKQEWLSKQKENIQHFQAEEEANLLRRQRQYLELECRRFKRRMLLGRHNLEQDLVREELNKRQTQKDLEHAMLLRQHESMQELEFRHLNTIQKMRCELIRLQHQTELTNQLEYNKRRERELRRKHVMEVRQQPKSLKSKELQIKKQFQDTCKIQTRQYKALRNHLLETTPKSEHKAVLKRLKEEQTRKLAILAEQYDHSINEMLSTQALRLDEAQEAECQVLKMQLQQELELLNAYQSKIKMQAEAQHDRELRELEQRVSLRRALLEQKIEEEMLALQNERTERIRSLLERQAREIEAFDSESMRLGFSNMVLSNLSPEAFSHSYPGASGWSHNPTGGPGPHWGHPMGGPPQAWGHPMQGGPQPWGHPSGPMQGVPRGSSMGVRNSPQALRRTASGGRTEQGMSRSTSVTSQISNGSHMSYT
Experiment [10] deals with Tyrosine-protein kinase Lck (Homo sapiens, UniProt P06239). Format: functional.
The target of another experiment is Aurora kinase B (Homo sapiens, UniProt Q96GD4). Format: functional.
Sequence of Aurora kinase B (Q96GD4 whole entry): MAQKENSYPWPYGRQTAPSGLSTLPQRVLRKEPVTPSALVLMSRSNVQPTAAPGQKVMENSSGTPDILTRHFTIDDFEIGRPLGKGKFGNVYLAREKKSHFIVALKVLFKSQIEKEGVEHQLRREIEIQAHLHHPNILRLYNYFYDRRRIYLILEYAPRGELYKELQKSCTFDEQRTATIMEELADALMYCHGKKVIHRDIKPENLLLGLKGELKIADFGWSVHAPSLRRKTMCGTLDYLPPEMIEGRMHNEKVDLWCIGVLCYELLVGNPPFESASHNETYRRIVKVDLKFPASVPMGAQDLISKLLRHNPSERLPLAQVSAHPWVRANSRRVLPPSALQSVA
In experiment [11] the target is Dual specificity tyrosine-phosphorylation-regulated kinase 3 (Homo sapiens, UniProt O43781). Format: functional.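 Further: measured as one member of a broad kinase panel.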
Sequence of Dual specificity tyrosine-phosphorylation-regulated kinase 3 (O43781 whole entry): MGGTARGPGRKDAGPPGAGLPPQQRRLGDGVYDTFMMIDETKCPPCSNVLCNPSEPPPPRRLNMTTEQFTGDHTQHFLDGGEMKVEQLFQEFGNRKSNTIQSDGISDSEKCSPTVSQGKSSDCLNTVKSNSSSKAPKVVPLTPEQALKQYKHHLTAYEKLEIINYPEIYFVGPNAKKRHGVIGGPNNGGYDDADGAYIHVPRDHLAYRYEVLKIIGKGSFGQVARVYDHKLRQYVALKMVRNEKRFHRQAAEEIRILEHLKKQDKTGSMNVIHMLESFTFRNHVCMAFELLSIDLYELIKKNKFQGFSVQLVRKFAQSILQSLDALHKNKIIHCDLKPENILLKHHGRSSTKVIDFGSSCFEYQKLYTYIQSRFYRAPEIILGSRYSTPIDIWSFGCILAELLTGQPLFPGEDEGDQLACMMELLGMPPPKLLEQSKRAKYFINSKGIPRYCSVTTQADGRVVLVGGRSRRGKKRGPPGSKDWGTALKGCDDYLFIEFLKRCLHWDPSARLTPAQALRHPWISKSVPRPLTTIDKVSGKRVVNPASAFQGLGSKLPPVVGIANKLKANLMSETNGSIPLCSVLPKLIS
The target of experiment [12] is Interleukin-1 receptor-associated kinase 4 (Homo sapiens, UniProt Q9NWZ3). Format: functional.
Sequence of Interleukin-1 receptor-associated kinase 4 (Q9NWZ3 whole entry): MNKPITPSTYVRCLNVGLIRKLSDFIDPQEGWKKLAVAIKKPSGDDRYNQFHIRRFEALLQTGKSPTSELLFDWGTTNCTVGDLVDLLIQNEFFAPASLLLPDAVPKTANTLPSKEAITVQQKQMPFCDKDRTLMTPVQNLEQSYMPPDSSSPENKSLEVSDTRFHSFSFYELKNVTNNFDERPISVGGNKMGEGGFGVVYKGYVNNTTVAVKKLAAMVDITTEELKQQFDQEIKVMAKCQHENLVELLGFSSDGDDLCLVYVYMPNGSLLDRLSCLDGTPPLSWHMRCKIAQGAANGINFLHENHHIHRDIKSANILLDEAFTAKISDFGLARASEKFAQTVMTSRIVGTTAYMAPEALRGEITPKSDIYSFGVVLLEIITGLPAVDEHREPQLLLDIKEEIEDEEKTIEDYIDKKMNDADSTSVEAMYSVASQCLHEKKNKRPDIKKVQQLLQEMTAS
For experiment [13], the target named is MAP kinase-interacting serine/threonine-protein kinase 2 (Homo sapiens, UniProt Q9HBH9). Format: functional.
Sequence of MAP kinase-interacting serine/threonine-protein kinase 2 (Q9HBH9 whole entry): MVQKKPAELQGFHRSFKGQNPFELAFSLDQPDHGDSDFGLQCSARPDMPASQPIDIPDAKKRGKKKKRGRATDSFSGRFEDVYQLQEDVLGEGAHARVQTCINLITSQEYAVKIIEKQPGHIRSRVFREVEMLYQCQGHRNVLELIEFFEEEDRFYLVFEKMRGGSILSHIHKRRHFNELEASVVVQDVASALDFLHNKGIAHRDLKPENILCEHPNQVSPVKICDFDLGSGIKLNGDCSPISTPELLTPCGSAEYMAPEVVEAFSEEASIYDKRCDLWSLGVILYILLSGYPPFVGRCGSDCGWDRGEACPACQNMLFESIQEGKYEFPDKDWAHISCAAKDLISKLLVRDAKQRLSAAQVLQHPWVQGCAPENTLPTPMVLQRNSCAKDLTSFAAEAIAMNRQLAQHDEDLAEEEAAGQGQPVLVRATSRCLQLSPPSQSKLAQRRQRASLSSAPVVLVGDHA
Experiment [14] deals with G protein-coupled receptor kinase 5 (Homo sapiens, UniProt P34947). Put plainly: Navigating the Kinome. Panel member name: GPRK5. Format: functional.
Experiment [15] deals with Mitogen-activated protein kinase kinase kinase kinase 2 (Homo sapiens, UniProt Q12851). The format is functional.
The target of the next experiment is Beta-galactosidase (Escherichia coli, UniProt Q8VNN2). The format is functional.
Experiment [16] addresses Kappa-type opioid receptor (Homo sapiens, UniProt P41145). The format is functional.
For experiment [17], the target named is Cyclin-dependent kinase 7 (Homo sapiens, UniProt P50613). The format is functional.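 Further: value comes from a kinome-wide kinase profiling panel in which CDK7 is one member.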
The target of experiment [18] is Platelet-derived growth factor receptor beta (Homo sapiens, UniProt P09619). The format is functional.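 Further: value comes from a kinome panel, with PDGFRB tested as one panel member.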
Sequence of Platelet-derived growth factor receptor beta (P09619 whole entry): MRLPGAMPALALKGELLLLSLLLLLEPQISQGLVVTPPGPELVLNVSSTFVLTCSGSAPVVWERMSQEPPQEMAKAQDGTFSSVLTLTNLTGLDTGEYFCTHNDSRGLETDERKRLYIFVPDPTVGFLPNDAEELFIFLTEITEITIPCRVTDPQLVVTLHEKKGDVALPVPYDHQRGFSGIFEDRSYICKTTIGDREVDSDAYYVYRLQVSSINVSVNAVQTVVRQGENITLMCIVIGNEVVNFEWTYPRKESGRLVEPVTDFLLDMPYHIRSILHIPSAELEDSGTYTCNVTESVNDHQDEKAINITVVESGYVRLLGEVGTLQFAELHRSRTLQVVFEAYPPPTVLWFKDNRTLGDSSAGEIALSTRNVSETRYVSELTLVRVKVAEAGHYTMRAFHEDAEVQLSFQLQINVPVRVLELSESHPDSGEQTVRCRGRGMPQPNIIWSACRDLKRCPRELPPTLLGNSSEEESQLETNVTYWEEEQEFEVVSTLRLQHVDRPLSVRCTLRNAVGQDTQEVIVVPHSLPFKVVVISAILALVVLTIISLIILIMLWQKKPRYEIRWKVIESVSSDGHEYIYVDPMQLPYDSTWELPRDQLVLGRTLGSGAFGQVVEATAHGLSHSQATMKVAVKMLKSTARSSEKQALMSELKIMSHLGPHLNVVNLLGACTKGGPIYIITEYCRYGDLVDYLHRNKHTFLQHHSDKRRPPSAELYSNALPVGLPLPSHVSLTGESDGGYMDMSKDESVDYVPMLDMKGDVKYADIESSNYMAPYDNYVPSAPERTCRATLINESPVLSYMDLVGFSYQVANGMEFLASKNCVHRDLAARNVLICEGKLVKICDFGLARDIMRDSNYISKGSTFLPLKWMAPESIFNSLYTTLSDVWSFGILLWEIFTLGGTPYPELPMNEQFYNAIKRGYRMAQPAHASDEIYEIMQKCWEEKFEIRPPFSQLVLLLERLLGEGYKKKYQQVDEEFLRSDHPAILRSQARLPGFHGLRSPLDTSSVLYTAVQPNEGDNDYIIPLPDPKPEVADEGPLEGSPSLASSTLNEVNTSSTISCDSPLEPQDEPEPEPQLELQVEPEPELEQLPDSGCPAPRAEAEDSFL
Another experiment concerns the target Focal adhesion kinase 1 (Homo sapiens, UniProt Q05397). The format is functional.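 Further: measured as one member of a kinome panel.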

Active and inactive are the calls of the source.

Sequence of Paired box protein Pax-8 (Q06710 whole entry): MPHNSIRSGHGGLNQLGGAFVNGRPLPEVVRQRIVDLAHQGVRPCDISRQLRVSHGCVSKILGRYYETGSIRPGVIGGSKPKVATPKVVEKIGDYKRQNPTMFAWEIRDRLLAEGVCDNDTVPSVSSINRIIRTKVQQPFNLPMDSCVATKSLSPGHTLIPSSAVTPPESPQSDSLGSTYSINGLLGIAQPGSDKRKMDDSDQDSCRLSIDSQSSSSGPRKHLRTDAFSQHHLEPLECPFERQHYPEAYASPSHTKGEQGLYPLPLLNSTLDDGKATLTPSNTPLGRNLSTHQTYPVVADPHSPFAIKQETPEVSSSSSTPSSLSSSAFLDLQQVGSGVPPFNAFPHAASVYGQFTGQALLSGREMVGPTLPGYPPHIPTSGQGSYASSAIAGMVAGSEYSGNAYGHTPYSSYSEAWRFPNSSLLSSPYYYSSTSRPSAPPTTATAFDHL
Sequence of Kappa-type opioid receptor (P41145 whole entry): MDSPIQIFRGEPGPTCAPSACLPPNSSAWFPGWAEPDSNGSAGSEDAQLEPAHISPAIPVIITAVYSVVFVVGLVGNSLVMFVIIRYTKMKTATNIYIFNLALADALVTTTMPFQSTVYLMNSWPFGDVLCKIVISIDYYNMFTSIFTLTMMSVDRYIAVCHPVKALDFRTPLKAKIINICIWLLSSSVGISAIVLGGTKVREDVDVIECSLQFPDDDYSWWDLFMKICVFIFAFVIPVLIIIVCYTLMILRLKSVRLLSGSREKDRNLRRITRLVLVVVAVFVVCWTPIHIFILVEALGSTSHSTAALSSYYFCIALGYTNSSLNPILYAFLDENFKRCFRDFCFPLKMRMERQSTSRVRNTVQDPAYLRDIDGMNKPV

Consider `COC(=O)CCS(=O)(=O)c1nc(-c2ccccc2)cc(C(F)(F)F)n1`, for which the IC50 is 3.08 µM (active) in experiment [1] and 1.34 µM (active) in experiment [2].

Consider `O=C(O)c1ccc(NC2=C(Cl)C(=O)c3ccccc3C2=O)cc1`, for which the half-inhibitory concentration (IC50) in [3] is 14.5 µM (active); in [5], 10.8 µM (not active). Also, the EC50 in experiment [4] was 4.97 µM (active).

For the compound `O=C(O)c1ccc2c3c(ncnc13)-c1ccccc1C2=O`, the EC50 in experiment [6] was 6.43 µM (active); in experiment [7], 34.8 µM (active).

Consider `CCOC(=O)c1c2c(n(Cc3ccccc3)c1C)C(=O)C(=O)c1ccccc1-2`, for which the AC50 is 5.03 µM (active) in experiment [8] and 1.98 µM (active) on Paired box protein Pax-8.

As for `Cc1ccc2nccc(NC(=O)Nc3cccc(C(F)(F)F)n3)c2c1`, the inhibitory constant (Ki) was 0.316 µM (active) on Activin receptor type-1; > 6.31 µM (inactive) in [9]; > 2.51 µM (inactive) in [10]; 0.251 µM (active) at Aurora kinase B; > 6.31 µM (inactive) in experiment [11]; > 10 µM (inactive) in [12]. Besides, the Ki in [13] is > 10 µM (inactive); in experiment [14], > 3.98 µM (inactive); in experiment [15] it was > 6.31 µM (inactive).

As to `Cc1c(/N=C2\C=CC(=O)c3ccccc32)c(=O)n(-c2ccccc2)n1C`, the EC50 on Beta-galactosidase was > 31.5 µM (inactive). Besides, the IC50 in experiment [16] is greater than 32 µM.

As for `COc1cc2c(cc1F)C(c1ccccc1Cl)=Nc1c(n[nH]c1C)N2` [RG-1530], the values for the Ki (in [17]; in experiment [18]; on Focal adhesion kinase 1) were 0.631 µM (active), 0.0501 µM (active) and 0.0126 µM (active), respectively.
